Results reported in PubChem BioAssay (NCI).
“And” between values parts separate entries of the source, which are not always exact repeats. Equal values may be shown once.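 Method: 48-hour compound exposure of cells in 96-well plates, five concentrations, linear interpolation of endpoints. Here, GI50 denotes the concentration required for 50% inhibition of growth. The concentration for full growth arrest is given as TGI.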

Assays:
Experiment in all cases: NCI anticancer screen, dose series, 48 h
HCC-2998 colon = system: HCC-2998 colon
KM12 colon = system: KM12 colon
U251 CNS = system: U251 CNS
MDA-MB-435 = system: MDA-MB-435
SF-539 CNS = system: SF-539 CNS
M14 melanoma = system: M14 melanoma
NCI/ADR-RES ovarian = system: NCI/ADR-RES ovarian
UO-31 renal = system: UO-31 renal
EKVX NSCLC = system: EKVX NSCLC
RPMI-8226 leukemia = system: RPMI-8226 leukemia
NCI-H522 lung = system: NCI-H522 lung
786-0 renal = system: 786-0 renal
SNB-19 CNS = system: SNB-19 CNS
BT-549 breast = system: BT-549 breast
SR leukemia = system: SR leukemia
HOP-62 NSCLC = system: HOP-62 NSCLC
CAKI-1 renal = system: CAKI-1 renal
SF-295 CNS = system: SF-295 CNS
RXF 393 renal = system: RXF 393 renal
HT29 colon = system: HT29 colon
HS 578T breast = system: HS 578T breast
HCT-116 colon = system: HCT-116 colon
TK-10 renal = system: TK-10 renal
OVCAR-3 ovarian = system: OVCAR-3 ovarian
OVCAR-5 ovarian = system: OVCAR-5 ovarian
IGROV1 ovarian = system: IGROV1 ovarian
MOLT-4 leukemia = system: MOLT-4 leukemia
LOX IMVI melanoma = system: LOX IMVI melanoma
NCI-H23 lung = system: NCI-H23 lung
ACHN renal = system: ACHN renal
SF-268 CNS = system: SF-268 CNS
T-47D breast = system: T-47D breast
A549 NSCLC = system: A549 NSCLC
MDA-N = system: MDA-N
HL-60(TB) leukemia = system: HL-60(TB) leukemia
PC-3 prostate = system: PC-3 prostate
SN12C renal = system: SN12C renal
SNB-75 CNS = system: SNB-75 CNS
MCF7 breast = system: MCF7 breast
A498 renal = system: A498 renal
MDA-MB-231 breast = system: MDA-MB-231 breast
OVCAR-4 ovarian = system: OVCAR-4 ovarian
SK-MEL-28 melanoma = system: SK-MEL-28 melanoma
HCT-15 colon = system: HCT-15 colon
COLO 205 colon = system: COLO 205 colon
SK-OV-3 ovarian = system: SK-OV-3 ovarian
CCRF-CEM leukemia = system: CCRF-CEM leukemia
OVCAR-8 ovarian = system: OVCAR-8 ovarian
SW-620 colon = system: SW-620 colon
UACC-257 melanoma = system: UACC-257 melanoma
NCI-H460 lung = system: NCI-H460 lung

SMILES: COc1ccc2[nH]c3c(C)c4ccnc(NCCCN(C)CCCNc5ccc6nnn7c8ccccc8c(=O)c5c67)c4c(C)c3c2c1
- TGI (HCC-2998 colon): 1440 nM
- GI50 (KM12 colon): 818 nM
- TGI (KM12 colon): 1800 nM and 2330 nM
- TGI (U251 CNS): 1670 nM
- TGI (MDA-MB-435): 1750 nM
- TGI (SF-539 CNS): 1380 nM
- TGI (M14 melanoma): 2130 nM
- TGI (NCI/ADR-RES ovarian): 2690 nM
- GI50 (UO-31 renal): 1290 nM
- TGI (UO-31 renal): 2610 nM and 2760 nM
- TGI (EKVX NSCLC): 2170 nM
- TGI (RPMI-8226 leukemia): 2190 nM
- TGI (NCI-H522 lung): 1670 nM
- TGI (786-0 renal): 1690 nM
- TGI (SNB-19 CNS): 2420 nM
- TGI (BT-549 breast): 3510 nM
- TGI (SR leukemia): > 100000 nM
- TGI (HOP-62 NSCLC): 2050 nM
- TGI (CAKI-1 renal): 2270 nM
- TGI (SF-295 CNS): 1440 nM
- TGI (RXF 393 renal): 2570 nM
- TGI (HT29 colon): 1360 nM
- TGI (HS 578T breast): 3910 nM
- TGI (HCT-116 colon): 1140 nM
- TGI (TK-10 renal): 2380 nM
- TGI (OVCAR-3 ovarian): 2400 nM
- TGI (OVCAR-5 ovarian): 2730 nM
- TGI (IGROV1 ovarian): 1800 nM
- TGI (MOLT-4 leukemia): 132 nM
- TGI (LOX IMVI melanoma): 1620 nM
- TGI (NCI-H23 lung): 2040 nM
- GI50 (ACHN renal): 136 nM
- TGI (ACHN renal): 1290 nM and 1550 nM
- GI50 (SF-268 CNS): 209 nM
- TGI (SF-268 CNS): 2510 nM and 3140 nM
- TGI (T-47D breast): 6940 nM
- TGI (A549 NSCLC): 1060 nM
- TGI (MDA-N): 2090 nM
- TGI (HL-60(TB) leukemia): 1210 nM
- TGI (PC-3 prostate): 1910 nM
- GI50 (SN12C renal): 294 nM
- TGI (SN12C renal): 1990 nM and 1670 nM
- GI50 (SNB-75 CNS): 1410 nM
- TGI (SNB-75 CNS): 2170 nM and 2860 nM
- TGI (MCF7 breast): 1250 nM
- TGI (A498 renal): 2880 nM
- TGI (MDA-MB-231 breast): 3190 nM
- TGI (OVCAR-4 ovarian): 4720 nM
- GI50 (SK-MEL-28 melanoma): 3450 nM
- TGI (HCT-15 colon): 1570 nM
- TGI (COLO 205 colon): 3530 nM
- GI50 (SK-OV-3 ovarian): 3290 nM
- TGI (SK-OV-3 ovarian): > 100000 nM
- TGI (CCRF-CEM leukemia): 5510 nM
- TGI (OVCAR-8 ovarian): 2130 nM
- TGI (SW-620 colon): 1160 nM
- TGI (UACC-257 melanoma): 4750 nM
- TGI (NCI-H460 lung): 492 nM
